Common to all, as to assay type: biochemical
In one experiment the target is T1, PDGF Ru(DB42V) (Homo sapiens, UniProt P16234, D842V).
T1 construct: purchased Carna Biosciences
Put plainly: mobility shift assay.

The next experiment deals with CDK7/CycHMAT1 (Homo sapiens, UniProt P50613). Put plainly: IC50 by mobility shift assay. Conditions: Table 2, mobility shift assay; read-out: IC50 (μM), Kinase CDK7/CycH/MAT1. The source says: (§1) The compounds produced in Production Examples described above were each assessed for its inhibitory activity against CDK7, PIM2, and PI3K by mobility shift assay. In addition, a combination showing the highest inhibitory activity against each kinase is indicated by italics.
CDK7/CycHMAT1, sequence (P50613 whole entry): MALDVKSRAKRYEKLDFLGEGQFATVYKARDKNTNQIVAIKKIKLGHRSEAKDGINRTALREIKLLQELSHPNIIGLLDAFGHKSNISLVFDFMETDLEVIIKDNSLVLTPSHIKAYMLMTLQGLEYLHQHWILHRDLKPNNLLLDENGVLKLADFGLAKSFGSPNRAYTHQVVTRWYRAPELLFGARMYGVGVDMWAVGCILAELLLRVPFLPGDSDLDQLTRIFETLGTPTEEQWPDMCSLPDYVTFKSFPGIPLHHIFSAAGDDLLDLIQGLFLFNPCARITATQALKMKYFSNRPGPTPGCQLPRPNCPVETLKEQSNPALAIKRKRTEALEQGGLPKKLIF
CDK7/CycHMAT1, sequence (P51946 whole entry partner): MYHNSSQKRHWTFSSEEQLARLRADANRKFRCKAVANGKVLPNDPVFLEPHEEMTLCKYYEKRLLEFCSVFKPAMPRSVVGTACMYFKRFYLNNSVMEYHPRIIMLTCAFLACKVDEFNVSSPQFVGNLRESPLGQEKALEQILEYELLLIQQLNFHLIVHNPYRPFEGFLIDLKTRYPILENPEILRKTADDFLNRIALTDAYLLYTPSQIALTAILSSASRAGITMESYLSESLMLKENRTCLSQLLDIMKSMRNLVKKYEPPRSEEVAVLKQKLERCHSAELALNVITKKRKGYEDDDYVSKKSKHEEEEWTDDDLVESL
CDK7/CycHMAT1, sequence (P51948 whole entry partner): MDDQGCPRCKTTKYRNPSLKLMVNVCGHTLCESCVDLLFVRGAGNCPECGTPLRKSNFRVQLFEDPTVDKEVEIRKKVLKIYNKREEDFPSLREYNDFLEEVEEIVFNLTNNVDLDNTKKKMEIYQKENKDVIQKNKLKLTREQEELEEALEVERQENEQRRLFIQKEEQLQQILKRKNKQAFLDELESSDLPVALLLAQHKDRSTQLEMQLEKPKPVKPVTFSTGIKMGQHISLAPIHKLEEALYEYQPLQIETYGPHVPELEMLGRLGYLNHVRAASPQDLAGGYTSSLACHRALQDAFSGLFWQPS

The target of another experiment is PIM2 (Homo sapiens, UniProt Q9P1W9). Description: IC50 by mobility shift assay. Conditions: Table 2, mobility shift assay; read-out: IC50 (μM), Kinase PIM2.
PIM2, sequence (Q9P1W9 whole entry): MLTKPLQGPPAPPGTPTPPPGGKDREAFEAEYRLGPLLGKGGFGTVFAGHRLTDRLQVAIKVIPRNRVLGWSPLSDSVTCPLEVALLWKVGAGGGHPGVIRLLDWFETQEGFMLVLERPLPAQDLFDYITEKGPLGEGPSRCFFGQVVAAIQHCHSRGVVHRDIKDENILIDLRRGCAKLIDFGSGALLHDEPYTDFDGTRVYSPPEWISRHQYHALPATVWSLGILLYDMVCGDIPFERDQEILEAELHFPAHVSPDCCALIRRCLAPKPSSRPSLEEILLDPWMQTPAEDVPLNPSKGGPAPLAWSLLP
Excerpt: as §1

A further experiment addresses T2, PKCε (Homo sapiens, UniProt Q02156).
T2 construct: purchased Carna Biosciences
Description: mobility shift assay.

The target of another experiment is T3, SIK (Homo sapiens, UniProt P57059).
T3 construct: purchased Carna Biosciences
T3 sequence (P57059 whole entry): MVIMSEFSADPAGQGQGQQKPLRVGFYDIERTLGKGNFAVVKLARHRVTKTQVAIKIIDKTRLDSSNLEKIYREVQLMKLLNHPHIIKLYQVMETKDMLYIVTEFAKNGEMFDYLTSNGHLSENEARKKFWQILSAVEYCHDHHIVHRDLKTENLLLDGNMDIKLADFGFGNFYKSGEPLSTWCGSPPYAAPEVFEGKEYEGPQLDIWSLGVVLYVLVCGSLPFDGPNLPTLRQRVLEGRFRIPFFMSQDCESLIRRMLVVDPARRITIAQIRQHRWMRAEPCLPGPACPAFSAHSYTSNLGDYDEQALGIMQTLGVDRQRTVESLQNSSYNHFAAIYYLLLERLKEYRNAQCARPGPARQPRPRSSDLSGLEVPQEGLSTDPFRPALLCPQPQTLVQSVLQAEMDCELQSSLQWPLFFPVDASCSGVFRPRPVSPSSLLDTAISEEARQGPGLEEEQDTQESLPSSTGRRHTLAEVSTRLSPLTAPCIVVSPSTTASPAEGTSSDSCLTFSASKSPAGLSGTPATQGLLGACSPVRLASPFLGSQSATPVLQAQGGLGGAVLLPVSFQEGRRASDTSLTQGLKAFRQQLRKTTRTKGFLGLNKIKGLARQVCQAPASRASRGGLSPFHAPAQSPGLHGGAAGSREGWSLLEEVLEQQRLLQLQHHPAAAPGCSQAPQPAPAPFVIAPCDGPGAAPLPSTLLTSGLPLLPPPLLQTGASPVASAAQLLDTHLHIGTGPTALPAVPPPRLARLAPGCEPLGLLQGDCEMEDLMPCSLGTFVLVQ
Description: mobility shift assay.

For another experiment, the target named is T4, MAP4K2 (Homo sapiens, UniProt Q12851).
T4 construct: purchased Carna Biosciences
T4 sequence (Q12851 whole entry): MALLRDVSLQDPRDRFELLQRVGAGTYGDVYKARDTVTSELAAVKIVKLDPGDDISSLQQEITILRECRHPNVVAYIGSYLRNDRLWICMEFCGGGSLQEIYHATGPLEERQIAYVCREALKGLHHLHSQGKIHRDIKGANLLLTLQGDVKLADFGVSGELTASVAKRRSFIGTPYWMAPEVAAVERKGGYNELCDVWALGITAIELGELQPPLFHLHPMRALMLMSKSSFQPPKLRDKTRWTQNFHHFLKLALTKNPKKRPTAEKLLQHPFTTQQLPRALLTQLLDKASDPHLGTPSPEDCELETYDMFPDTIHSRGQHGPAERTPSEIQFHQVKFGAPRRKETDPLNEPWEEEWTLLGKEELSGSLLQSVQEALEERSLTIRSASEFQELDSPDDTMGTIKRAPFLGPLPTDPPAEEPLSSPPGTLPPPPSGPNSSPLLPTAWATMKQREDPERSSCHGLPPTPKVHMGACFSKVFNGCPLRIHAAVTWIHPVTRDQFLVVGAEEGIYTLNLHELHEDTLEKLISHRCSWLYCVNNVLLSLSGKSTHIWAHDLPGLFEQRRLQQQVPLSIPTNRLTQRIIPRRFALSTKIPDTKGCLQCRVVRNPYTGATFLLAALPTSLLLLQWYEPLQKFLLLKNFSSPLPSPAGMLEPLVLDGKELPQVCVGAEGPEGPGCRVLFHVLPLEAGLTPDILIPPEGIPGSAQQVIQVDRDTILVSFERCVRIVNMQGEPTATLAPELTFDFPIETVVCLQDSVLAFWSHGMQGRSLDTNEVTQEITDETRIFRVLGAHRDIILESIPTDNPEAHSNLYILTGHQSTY
Description: mobility shift assay.

This is an account of results in patent publication US11691980B2, “Liphagal analog and multi-targeted kinase inhibitor containing liphagal or analog thereof” (TOHOKU UNIVERSITY, priority 2017, dated 2023).

T2 sequence (Q02156 whole entry): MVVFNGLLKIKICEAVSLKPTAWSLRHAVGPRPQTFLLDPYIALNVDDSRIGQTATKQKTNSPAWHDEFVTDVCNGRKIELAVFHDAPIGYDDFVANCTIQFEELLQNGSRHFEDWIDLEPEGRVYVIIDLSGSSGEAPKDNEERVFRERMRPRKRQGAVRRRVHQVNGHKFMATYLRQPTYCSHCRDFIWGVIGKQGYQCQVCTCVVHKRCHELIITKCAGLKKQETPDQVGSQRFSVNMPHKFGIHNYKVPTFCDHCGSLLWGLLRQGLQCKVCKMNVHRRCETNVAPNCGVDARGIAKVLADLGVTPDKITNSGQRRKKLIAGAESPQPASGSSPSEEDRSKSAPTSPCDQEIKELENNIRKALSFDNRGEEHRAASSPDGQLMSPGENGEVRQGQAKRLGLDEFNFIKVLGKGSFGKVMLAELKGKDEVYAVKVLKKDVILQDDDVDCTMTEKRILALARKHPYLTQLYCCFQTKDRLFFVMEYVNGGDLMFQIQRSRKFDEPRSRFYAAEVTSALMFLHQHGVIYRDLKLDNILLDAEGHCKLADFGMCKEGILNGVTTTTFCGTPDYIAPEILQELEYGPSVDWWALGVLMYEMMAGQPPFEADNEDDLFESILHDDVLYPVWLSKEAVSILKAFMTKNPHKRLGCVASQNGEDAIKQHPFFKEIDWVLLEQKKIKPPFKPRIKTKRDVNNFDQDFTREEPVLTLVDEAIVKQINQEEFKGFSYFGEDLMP
T1 sequence (P16234 550-1089 D842V limits assumed): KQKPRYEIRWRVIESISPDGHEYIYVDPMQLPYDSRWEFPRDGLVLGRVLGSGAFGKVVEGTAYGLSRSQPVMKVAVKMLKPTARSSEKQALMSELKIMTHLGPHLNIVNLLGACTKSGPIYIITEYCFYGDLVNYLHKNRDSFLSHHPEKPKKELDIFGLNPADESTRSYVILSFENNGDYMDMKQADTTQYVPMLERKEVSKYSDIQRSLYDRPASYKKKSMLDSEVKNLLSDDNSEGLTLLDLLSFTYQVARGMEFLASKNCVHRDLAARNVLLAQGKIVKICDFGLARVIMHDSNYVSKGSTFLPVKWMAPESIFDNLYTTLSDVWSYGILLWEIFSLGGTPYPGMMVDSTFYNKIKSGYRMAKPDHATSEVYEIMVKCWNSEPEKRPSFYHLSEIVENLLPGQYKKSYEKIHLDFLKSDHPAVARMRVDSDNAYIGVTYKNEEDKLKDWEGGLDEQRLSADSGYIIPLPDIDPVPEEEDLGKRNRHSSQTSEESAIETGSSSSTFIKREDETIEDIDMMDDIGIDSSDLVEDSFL

As to `C[C@@H]1CC[C@H]2C(C)(C)CCC[C@]2(C)c2c1oc1c(C=O)c(O)c(O)cc21` [LG-1, liphagal], the inhibition at 10 µM at PDGF Ru(DB42V) is 1.5%; at PKCε, -46.9%; at SIK it was 33.7%; on MAP4K2, 5%. In addition, the IC50 amounted to 1.27 µM at CDK7/CycHMAT1 and 5.31 µM on PIM2.

A word on the inhibition: it is the relative decrease from the control value, in per cent.
